Test results as given in patent US20240261225A1, “FORMIC ACID AS PROCESSING AID IN SPRAY DRYING FOR BASIC DRUGS” (Lonza Bend Inc., priority 2021, published 2024).
In brackets after ≈: the same amount, converted by molar mass.

Key:
[1] = Gefitinib solubility in methanol and methanol:water mixtures (saturated solutions, HPLC); assay type: physicochemical; settings: 20° C.; for Solubility without formic acid: calculated based on densities at RT
Procedure: Crystalline gefitinib was added in excess to methanol and methanol:water mixtures to form saturated solutions at 20° C. After 24 hour of stirring, 1 mL aliquots were centrifuged at 10'000 RCF for 3 min. The supernatant was then analyzed for gefitinib concentration by HPLC.

physchem [2] = settings: 21 °C, organic solvent or mixture, thermodynamic from solid, Solubility with formic acid
Procedure: The solubility of gefitinib in solvent mixtures with 98% formic acid were obtained by suspending at RT 300 mg of crystalline gefitinib in 5 mL of solvent containing 100 microliters of formic acid at 21° C. (4.0 eq of formic acid). Both solutions were visually clear solutions at 60 mg/mL.
5 ml of a mixture of 4.9 ml of 90:10 methanol/water w/w with 0.1 ml HCOOH weigh 4.122 g based on the densities at RT as stated below.
5 ml of a mixture of 4.9 ml 80:20 methanol:water w/w with 0.1 ml HCOOH weigh 4.212 g based on the densities at RT as stated below.
The solution in the mixture of 4.9 ml of 90:10 MeOH:H2O w/w with 0.1 ml HCOOH was a visually clear solution at 72.8 mg/g based on the densities at RT as stated below.
The solution in the mixture of 4.9 ml of 80:20 MeOH:H2O w/w with 0.1 ml HCOOH was a visually clear solution at 71.2 mg/g based on the densities at RT as stated below.
[Solubility with formic acid]/[Solubility without formic acid]

[3] = according to go.drugbank.com; cited from earlier work
[4] = Nilotinib solubilities without and with formic acid; settings: for Solubility with formic acid: 4.0 molar equivalents of formic acid
physchem [5] = settings: 25 °C, organic solvent or mixture

| SMILES | Solubility without formic acid ([1]; MeOH:H2O 80:20 (w/w)) [mg/g] | Solubility without formic acid ([1]; MeOH:H2O 90:10 (w/w)) [mg/g] | Solubility without formic acid ([1]; MeOH:H2O 100:0 (w/w)) [mg/g] | solubility at 24 h ([1]; methanol, organic solvent or mixture, thermodynamic from solid, MeOH:H2O 100:0 (w/w), read-out: Solubility without formic acid) [µg/mL] | solubility (physchem [2]) [µg/mL] | basic pKa [3] | Solubility with formic acid ([4]; MeOH:H2O 80:20 (w/w), 25° C.) [µg/mL] | Solubility without formic acid ([4]; MeOH:H2O 80:20 (w/w), 25° C.) [µg/mL] | Solubility with formic acid ([4]; MeOH:H2O 90:10 (w/w), 25° C.) [µg/mL] | Solubility with formic acid ([4]; MeOH:H2O 100:0 (w/w), 25° C.) [µg/mL] | effect of addition of formic acid on solubility over the solubility in MeOH ([4]; formic acid with and without the presence of water) | solubility (physchem [5]; methanol) [µg/mL] | solubility (physchem [5]; methanol:water 90:10 (w/w)) [µg/mL] |
| --- | --- | --- | --- | --- | --- | --- | --- | --- | --- | --- | --- | --- | --- |
| COc1cc2ncnc(Nc3ccc(F)c(Cl)c3)c2cc1OCCCN1CCOCC1 [gefitinib] | 7.6 | 7.4 | 8.8 | 7000 (≈ 15.7 mM) | ≥ 60000 |  |  |  |  |  |  |  |  |
| Cc1cn(-c2cc(NC(=O)c3ccc(C)c(Nc4nccc(-c5cccnc5)n4)c3)cc(C(F)(F)F)c2)cn1 [nilotinib] |  |  |  |  |  | 5.92 | 8200 | 1000 (≈ 1.89 mM) | 8200 | 7900 | increase of solubility | 2900 (≈ 5.48 mM) | 2000 (≈ 3.78 mM) |
